# From patent publication US20240408080A1, “PHARMACEUTICAL COMPOSITIONS OF CGRP INHIBITORS AND METHODS OF THEIR USE” (Pfizer Ireland Pharmaceuticals, priority 2021, published 2024)
# How the values were obtained:
# [1] = pH-solubility profile (physical and chemical properties of drug substance); type: physicochemical; conditions: mono-hydrochloride salt
# [2] = pKa (physical and chemical properties of drug substance); type: physicochemical
# [3] = Phase 1 multiple ascending dose (MAD) study, intranasal, pharmacokinetics; type: in vivo, human; conditions: for AUC: human
# Protocol: A Phase 1, single-center, randomized, double-blind, placebo-controlled, sequential multiple ascending dose (MAD) study with 2 alternate dosing arms was conducted. […] The MAD portion of the study consists of 4 cohorts, with a maximum dose of 20 mg administered once daily for up to 14 days in 3 cohorts, and 20 mg administered twice daily for up to 8 days in the fourth cohort.
# In addition to the 4 MAD cohorts, there were 2 alternate dosing cohorts, each consisting of 1 day dosing. The first alternate dosing cohort assessed the effect of 2 sequential administrations of 20 mg (20 mg spray [100 μL of 200 mg/mL] in alternate nostrils); with a 30 minute interval between administrations. A 2nd alternate dosing cohort assessed the effect of 2 sequential administrations of 20 mg (20 mg spray [100 μL of 200 mg/mL] in alternate nostrils); with a nose blow and 5 minute interval between administrations.
# The PK data were collected from subjects in Cohorts 1 to 4.
# [4] = system: acute treatment of migraine; assay: Phase 2/3 clinical trial BHV3500-201 (Study 201), efficacy of intranasal zavegepant versus placebo; type: in vivo, human; conditions: for (2) Return to normal function at 2 hours posidose, Stratified Percentage Difference (Zavegepant − Placebo) / (7) Return to normal function at 60 minutes postdose, Stratified Percentage Difference (Zavegepant − Placebo) / (9) Return to normal function at 30 minutes postdose, Stratified Percentage Difference (Zavegepant − Placebo): subjects with functional disability at onset; for (9) Return to normal function at 30 minutes postdose, n/N (%): mITT subjects with functional disability at on-study migraine attack onset
# [5] = Phase 2/3 clinical trial BHV3500-201 (Study 201), safety, adverse events and liver function tests; type: in vivo, human
# [6] = Zavegepant 5 mg Group vs placebo, CMH weighting, mITT subjects
# [7] = Zavegepant 5 mg Group vs placebo, CMH weighting
# [8] = Zavegepant 5 mg Group, intranasal single dose, mITT subjects
# [9] = Zavegepant 10 mg Group vs placebo, CMH weighting, mITT subjects
# [10] = Zavegepant 10 mg Group vs placebo, CMH weighting
# [11] = Zavegepant 10 mg Group, intranasal single dose, mITT subjects
# [12] = Zavegepant 20 mg Group vs placebo, CMH weighting, mITT subjects
# [13] = Zavegepant 20 mg Group vs placebo, CMH weighting
# [14] = Zavegepant 20 mg Group vs placebo, CMH weighting, subjects with symptom present at onset
structure (smiles),measurement,setting,value
"Cc1cc(C[C@@H](NC(=O)N2CCC(c3cc4ccccc4[nH]c3=O)CC2)C(=O)N2CCN(C3CCN(C)CC3)CC2)cc2cn[nH]c12 [Zavegepant, (R)-N-(3-(7-methyl-1H-indazol-5-yl)-1-(4-(1-methylpiperidin-4-yl)piperazin-1-yl)-1-oxopropan-2-yl)-4-(2-oxo-1,2-dihydroquinolin-3-yl)piperidine-1-carboxamide]",pH-solubility profile,[1]; at lower pH,> 300 mg/mL
same,pH-solubility profile,[1]; pH = 8.2,105 mg/mL
same,pKa (second value),[2],8.8
same,Plasma Concentrations (Mean),"[3]; 5 mg, Day 14, 0.500 h",8.08 ng/mL
same,AUC,"[3]; in vivo, 5 mg",19 ng·h/mL
same,AUC,"[3]; in vivo, 10 mg",30.9 ng·h/mL
same,AUC,"[3]; in vivo, 20 mg",87.9 ng·h/mL
same,urine concentrations,[3]; in vivo,below the limit of quantitation
same,"Freedom from MBS (Most Bothersome Symptom), 2 Hour Endpoint",[4]; 5 mg single dose,39.0%
same,"Pain Relief at 15 Minutes Post-Dose, n/N (value in brackets)","[4]; 15 mg (so in the source), Prophylactic migraine medication use: Yes",13/50 (24.0)
same,return to normal function,[4]; 20 mg,return to normal function as early as 30 minutes
same,onset of pain relief,"[4]; 5, 10, and 20 mg single dose, stratified CMH tests, mITT",pain relief as early as 15 minutes post-dose
same,co-primary endpoints of pain freedom and freedom from MBS at 2 hours versus placebo,[4]; 10 and 20 mg single dose,statistically superior (p<0.05) to placebo
same,"(1) Pain relief at 2 hours postdose, Stratified Percentage Difference (Zavegepant − Placebo)",[4]; [6],4.2%
same,"(3) Rescue medication use within 24 hours postdose, Stratified Percentage Difference (Zavegepant − Placebo)",[4]; [6],−2.4%
same,"(4) Photophobia freedom at 2 hours postdose, Stratified Percentage Difference (Zavegepant − Placebo)",[4]; [6],4.6%
same,"(6) Pain relief at 60 minutes postdose, Stratified Percentage Difference (Zavegepant − Placebo)",[4]; [6],5.1%
same,"(8) Pain relief at 30 minutes postdose, Stratified Percentage Difference (Zavegepant − Placebo)",[4]; [6],1.9%
same,"(10) Sustained pain relief from 2 to 24 hours postdose, Stratified Percentage Difference (Zavegepant − Placebo)",[4]; [6],8.0%
same,"(11) Sustained pain freedom from 2 to 24 hours postdose, Stratified Percentage Difference (Zavegepant − Placebo)",[4]; [6],5.3%
same,"(12) Sustained pain relief from 2 to 48 hours postdose, Stratified Percentage Difference (Zavegepant − Placebo)",[4]; [6],7.4%
same,"(13) Sustained pain freedom from 2 to 48 hours postdose, Stratified Percentage Difference (Zavegepant − Placebo)",[4]; [6],5.5%
same,"(2) Return to normal function at 2 hours posidose, Stratified Percentage Difference (Zavegepant − Placebo)",[4]; [7],4.3%
same,"(7) Return to normal function at 60 minutes postdose, Stratified Percentage Difference (Zavegepant − Placebo)",[4]; [7],5.5%
same,"(9) Return to normal function at 30 minutes postdose, Stratified Percentage Difference (Zavegepant − Placebo)",[4]; [7],3.4%
same,"(14) Nausca freedom at 2 hours postdose, Stratified Percentage Difference (Zavegepant − Placebo)","[4]; Zavegepant 5 mg Group vs placebo, CMH weighting, subjects with symptom present at onset",1.8%
same,"(4) Photophobia freedom at 2 hours postdose, n/N (%)",[4]; [8],118/337 (35.0) %
same,"(6) Pain relief at 60 minutes postdose, n/N (%)",[4]; [8],182/387 (47.0) %
same,"(9) Return to normal function at 30 minutes postdose, n/N (%)","[4]; Zavegepant 5 mg Group, intranasal single dose",32/363 (8.8) %
same,"(1) Pain relief at 2 hours postdose, Stratified Percentage Difference (Zavegepant − Placebo)",[4]; [9],7.1%
same,"(3) Rescue medication use within 24 hours postdose, Stratified Percentage Difference (Zavegepant − Placebo)",[4]; [9],−1.1%
same,"(4) Photophobia freedom at 2 hours postdose, Stratified Percentage Difference (Zavegepant − Placebo)",[4]; [9],5.1%
same,"(6) Pain relief at 60 minutes postdose, Stratified Percentage Difference (Zavegepant − Placebo)",[4]; [9],4.2%
same,"(8) Pain relief at 30 minutes postdose, Stratified Percentage Difference (Zavegepant − Placebo)",[4]; [9],5.3%
same,"(10) Sustained pain relief from 2 to 24 hours postdose, Stratified Percentage Difference (Zavegepant − Placebo)",[4]; [9],6.8%
same,"(11) Sustained pain freedom from 2 to 24 hours postdose, Stratified Percentage Difference (Zavegepant − Placebo)",[4]; [9],6.1%
same,"(12) Sustained pain relief from 2 to 48 hours postdose, Stratified Percentage Difference (Zavegepant − Placebo)",[4]; [9],7.0%
same,"(13) Sustained pain freedom from 2 to 48 hours postdose, Stratified Percentage Difference (Zavegepant − Placebo)",[4]; [9],6.3%
same,"(2) Return to normal function at 2 hours posidose, Stratified Percentage Difference (Zavegepant − Placebo)",[4]; [10],7.1%
same,"(7) Return to normal function at 60 minutes postdose, Stratified Percentage Difference (Zavegepant − Placebo)",[4]; [10],1.8%
same,"(9) Return to normal function at 30 minutes postdose, Stratified Percentage Difference (Zavegepant − Placebo)",[4]; [10],2.1%
same,"(15) Pain relapse from 2 to 48 hours postdose, Stratified Percentage Difference (Zavegepant − Placebo)","[4]; Zavegepant 10 mg Group vs placebo, CMH weighting, subjects with pain freedom at 2 hours postdose",−17.0%
same,"(14) Nausca freedom at 2 hours postdose, Stratified Percentage Difference (Zavegepant − Placebo)","[4]; Zavegepant 10 mg Group vs placebo, CMH weighting, subjects with symptom present at onset",2.9%
same,"(3) Rescue medication use within 24 hours postdose, n/N (%)",[4]; [11],101/388 (26.0) %
same,"(6) Pain relief at 60 minutes postdose, n/N (%)",[4]; [11],180/391 (46.0) %
same,"(9) Return to normal function at 30 minutes postdose, n/N (%)","[4]; Zavegepant 10 mg Group, intranasal single dose",27/354 (7.6) %
same,"(15) Pain relapse from 2 to 48 hours postdose, n/N (%)","[4]; Zavegepant 10 mg Group, intranasal single dose, mITT subjects with pain freedom at 2 hours postdose",29/88 (33.0) %
same,"(1) Pain relief at 2 hours postdose, Stratified Percentage Difference (Zavegepant − Placebo)",[4]; [12],7.5%
same,"(3) Rescue medication use within 24 hours postdose, Stratified Percentage Difference (Zavegepant − Placebo)",[4]; [12],−7.1%
same,"(4) Photophobia freedom at 2 hours postdose, Stratified Percentage Difference (Zavegepant − Placebo)",[4]; [12],7.4%
same,"(6) Pain relief at 60 minutes postdose, Stratified Percentage Difference (Zavegepant − Placebo)",[4]; [12],7.8%
same,"(8) Pain relief at 30 minutes postdose, Stratified Percentage Difference (Zavegepant − Placebo)",[4]; [12],1.9%
same,"(10) Sustained pain relief from 2 to 24 hours postdose, Stratified Percentage Difference (Zavegepant − Placebo)",[4]; [12],8.9%
same,"(11) Sustained pain freedom from 2 to 24 hours postdose, Stratified Percentage Difference (Zavegepant − Placebo)",[4]; [12],6.7%
same,"(12) Sustained pain relief from 2 to 48 hours postdose, Stratified Percentage Difference (Zavegepant − Placebo)",[4]; [12],6.2%
same,"(13) Sustained pain freedom from 2 to 48 hours postdose, Stratified Percentage Difference (Zavegepant − Placebo)",[4]; [12],5.7%
same,"(2) Return to normal function at 2 hours posidose, Stratified Percentage Difference (Zavegepant − Placebo)",[4]; [13],7.3%
same,"(7) Return to normal function at 60 minutes postdose, Stratified Percentage Difference (Zavegepant − Placebo)",[4]; [13],1.7%
same,"(9) Return to normal function at 30 minutes postdose, Stratified Percentage Difference (Zavegepant − Placebo)",[4]; [13],4.5%
same,"(5) Phonophobia freedom at 2 hours postdose, Stratified Percentage Difference (Zavegepant − Placebo)",[4]; [14],9.3%
same,"(14) Nausca freedom at 2 hours postdose, Stratified Percentage Difference (Zavegepant − Placebo)",[4]; [14],3.7%
same,"(9) Return to normal function at 30 minutes postdose, n/N (%)","[4]; Zavegepant 20 mg Group, intranasal single dose",37/372 (9.9) %
same,secondary endpoints demonstrating early activity versus placebo,[4]; nominal p<0.05,superior to placebo on multiple secondary endpoints
same,durability of benefits (sustained pain freedom and pain relief 2 to 24 and 2 to 48 hours),"[4]; nominal p<0.05, 5, 10 and 20 mg (pain relief 2 to 48 h: 5 and 10 mg)",durable and sustained without rescue medication out to 48 hours
same,ALT or AST > 3x ULN (subjects),[5]; 5 mg (N = 388),0
same,Bilirubin > 2x ULN (subjects),[5]; 5 mg (N = 388),0
same,ALT or AST > 3x ULN (subjects),[5]; 10 mg (N = 394),0
same,Bilirubin > 2x ULN (subjects),[5]; 10 mg (N = 394),0
same,ALT or AST > 3x ULN (subjects),[5]; 20 mg (N = 403),0
same,Bilirubin > 2x ULN (subjects),[5]; 20 mg (N = 403),0
same,ALT or AST > 3x ULN (subjects),[5]; All zavegepant (N = 1185),0
same,Bilirubin > 2x ULN (subjects),[5]; All zavegepant (N = 1185),0
same,"hepatotoxicity signal (AST or ALT>3× ULN, total bilirubin>2× ULN)",[5]; any treatment arm,no signal of hepatoxicity
same,tolerability and safety,"[5]; intranasal, single dose trial",well tolerated and safe
same,AEs mild in intensity,[5]; single dose trial,> 80%
